From ChEMBL document CHEMBL1201862, “PubChem BioAssay data set” (2004)
The source made the active and inactive calls.

Key:
[1] = M. tuberculosis H37Rv growth inhibitors, H37Rv strain (AID 1626); assay type: functional
Vero = assay: Vero cell viability after compound exposure – synthesized analogs, set II, cytotoxicity control for West Nile virus antiviral project, SAR follow-up (AID 2402); assay type: functional; conditions: Chlorocebus sabaeus
Cytochrome P450 2C19 = Cytochrome P450 2C19 (Homo sapiens, UniProt P33261); assay: qHTS Assay for Inhibitors and Substrates of Cytochrome P450 2C19. [Related pubchem assays: 410 ]; assay type: ADME; conditions: read-out: Potency
Cytochrome P450 3A4 = Cytochrome P450 3A4 (Homo sapiens, UniProt P08684); conditions: Potency;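 note: confirmatory qHTS run detecting inhibitors and substrates of CYP3A4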
[2] = biological target: Aryl hydrocarbon receptor (Homo sapiens, UniProt P35869); assay: Luminescence-based cell-based high throughput dose response assay for activators of the Aryl Hydrocarbon Receptor (AHR). [Related pubchem assays: 2796 (Primary screen (AHR activators in singlicate)), 2845 (Confirmation screen (AHR activators in triplicate)), 434939 (Counterscreen (PXR activators in triplicate)), 2804 (Summary (AHR activators))]; assay type: ADME
[3] = biological target: T1, High affinity choline transporter 1 (Homo sapiens, UniProt Q9GZV3); assay: human choline transporter blockers, potency – cell-based, 5-point CRC, membrane potential dye, dose response (AID 504840); assay type: functional
T1 sequence (Q9GZV3 whole entry): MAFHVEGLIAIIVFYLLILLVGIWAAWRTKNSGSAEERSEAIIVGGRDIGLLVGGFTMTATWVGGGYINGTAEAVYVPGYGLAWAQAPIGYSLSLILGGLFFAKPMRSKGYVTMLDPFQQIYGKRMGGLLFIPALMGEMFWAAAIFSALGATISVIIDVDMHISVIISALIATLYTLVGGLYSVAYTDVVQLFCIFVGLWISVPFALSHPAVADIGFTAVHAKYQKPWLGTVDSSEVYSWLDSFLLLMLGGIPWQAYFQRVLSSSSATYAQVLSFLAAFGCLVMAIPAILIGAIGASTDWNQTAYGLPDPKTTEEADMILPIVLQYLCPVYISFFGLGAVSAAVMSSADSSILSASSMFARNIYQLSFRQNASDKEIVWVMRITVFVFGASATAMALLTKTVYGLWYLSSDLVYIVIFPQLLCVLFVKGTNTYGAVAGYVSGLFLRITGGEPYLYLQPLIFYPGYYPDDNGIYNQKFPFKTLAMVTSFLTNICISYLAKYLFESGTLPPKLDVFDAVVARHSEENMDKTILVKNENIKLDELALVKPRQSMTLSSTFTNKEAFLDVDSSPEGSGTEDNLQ

[4] = biological target: Diphosphomevalonate decarboxylase (Streptococcus pneumoniae serotype 2 (strain D39 / NCTC 7466), UniProt Q9FD53); assay: diphosphomevalonate decarboxylase inhibitor confirmation – biochemical, cuvette format, coupled NADH fluorescence (AID 1028); assay type: functional
Bcl-2-like protein 10 = Bcl-2-like protein 10 (Homo sapiens, UniProt Q9HD36); assay: Bcl-B/TR3 peptide binding disruption – biochemical, fluorescence polarization, FITC-TR3 peptide, selectivity assay for Bfl-1 inhibitor project, primary screen (AID 748);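 note: fluorescence polarization from a fluorescein-labelled TR3 peptide binding purified Bcl-B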
Ephrin type-A receptor 4 = Ephrin type-A receptor 4 (Mus musculus, UniProt Q03137); assay: EphA4 ligand-binding antagonists – biochemical, colorimetric, mouse EphA4, primary screen (AID 689); assay type: functional
[5] = biological target: Induced myeloid leukemia cell differentiation protein Mcl-1 (Homo sapiens, UniProt Q07820); assay type: functional
[6] = biological target: DNA (cytosine-5)-methyltransferase 1 (Homo sapiens, UniProt P26358); assay: inhibition of DNA methylation by DNMT1 – biochemical, fluorescent molecular beacon, confirmation (AID 602386); assay type: functional
[7] = viability loss in THP-1 monocytes – THP-1 cells, cytotoxicity control for Vif-APOBEC3G degradation inhibitor project, dose response (AID 1117359); assay type: functional; conditions: THP-1

Chain of Aryl hydrocarbon receptor (P35869 whole entry): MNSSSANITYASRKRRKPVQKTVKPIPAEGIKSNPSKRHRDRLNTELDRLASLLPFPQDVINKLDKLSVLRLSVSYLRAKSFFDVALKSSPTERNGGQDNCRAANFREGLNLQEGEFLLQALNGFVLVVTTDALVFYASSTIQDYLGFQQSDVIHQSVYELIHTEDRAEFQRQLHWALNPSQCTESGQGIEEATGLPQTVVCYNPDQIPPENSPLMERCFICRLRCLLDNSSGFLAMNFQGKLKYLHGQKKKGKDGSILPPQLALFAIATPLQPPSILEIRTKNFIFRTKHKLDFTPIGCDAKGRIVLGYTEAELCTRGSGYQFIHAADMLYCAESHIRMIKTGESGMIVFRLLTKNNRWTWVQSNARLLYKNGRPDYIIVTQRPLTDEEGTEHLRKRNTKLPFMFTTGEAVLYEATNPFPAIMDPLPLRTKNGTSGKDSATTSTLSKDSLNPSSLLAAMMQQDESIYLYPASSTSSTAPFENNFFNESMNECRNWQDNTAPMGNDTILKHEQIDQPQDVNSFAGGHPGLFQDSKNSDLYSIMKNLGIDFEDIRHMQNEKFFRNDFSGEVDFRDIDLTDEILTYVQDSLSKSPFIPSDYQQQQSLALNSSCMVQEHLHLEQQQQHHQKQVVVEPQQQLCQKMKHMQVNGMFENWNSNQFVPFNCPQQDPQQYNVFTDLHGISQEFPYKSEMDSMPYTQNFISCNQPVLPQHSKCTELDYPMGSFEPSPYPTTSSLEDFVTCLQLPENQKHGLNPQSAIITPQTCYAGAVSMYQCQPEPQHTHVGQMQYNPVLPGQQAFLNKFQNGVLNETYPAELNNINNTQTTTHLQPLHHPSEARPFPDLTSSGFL
Chain of Bcl-2-like protein 10 (Q9HD36 whole entry): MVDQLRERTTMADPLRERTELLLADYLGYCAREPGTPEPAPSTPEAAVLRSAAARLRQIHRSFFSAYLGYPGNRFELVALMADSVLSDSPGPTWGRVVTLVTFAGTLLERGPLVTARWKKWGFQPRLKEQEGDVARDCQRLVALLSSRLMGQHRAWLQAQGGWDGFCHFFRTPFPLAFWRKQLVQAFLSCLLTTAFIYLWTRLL
Chain of Cytochrome P450 2C19 (P33261 whole entry): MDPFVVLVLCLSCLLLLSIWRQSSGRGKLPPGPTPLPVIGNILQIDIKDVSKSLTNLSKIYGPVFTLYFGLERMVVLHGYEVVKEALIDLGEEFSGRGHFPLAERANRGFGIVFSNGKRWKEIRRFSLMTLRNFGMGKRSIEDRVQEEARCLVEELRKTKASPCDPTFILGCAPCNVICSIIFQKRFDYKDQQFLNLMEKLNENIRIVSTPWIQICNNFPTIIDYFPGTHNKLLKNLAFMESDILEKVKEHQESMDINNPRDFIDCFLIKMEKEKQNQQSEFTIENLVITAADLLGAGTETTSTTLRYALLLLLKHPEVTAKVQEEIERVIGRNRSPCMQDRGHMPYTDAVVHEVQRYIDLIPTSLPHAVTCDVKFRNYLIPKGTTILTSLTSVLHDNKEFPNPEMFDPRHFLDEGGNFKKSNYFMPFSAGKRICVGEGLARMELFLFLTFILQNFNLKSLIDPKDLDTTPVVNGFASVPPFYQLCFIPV
Chain of Cytochrome P450 3A4 (P08684 whole entry): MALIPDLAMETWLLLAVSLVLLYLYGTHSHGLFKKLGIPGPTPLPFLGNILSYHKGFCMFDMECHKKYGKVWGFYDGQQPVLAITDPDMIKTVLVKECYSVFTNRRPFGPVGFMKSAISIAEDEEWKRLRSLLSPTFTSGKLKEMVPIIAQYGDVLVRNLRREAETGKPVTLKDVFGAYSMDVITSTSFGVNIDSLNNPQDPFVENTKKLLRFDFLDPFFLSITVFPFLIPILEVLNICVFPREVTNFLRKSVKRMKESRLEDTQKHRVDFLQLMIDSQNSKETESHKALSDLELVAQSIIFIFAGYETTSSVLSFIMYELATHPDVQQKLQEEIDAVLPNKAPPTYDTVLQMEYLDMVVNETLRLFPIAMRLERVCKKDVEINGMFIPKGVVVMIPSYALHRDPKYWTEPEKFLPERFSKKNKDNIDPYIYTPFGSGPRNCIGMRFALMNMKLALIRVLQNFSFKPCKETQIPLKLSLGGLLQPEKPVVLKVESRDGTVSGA
Chain of Ephrin type-A receptor 4 (Q03137 whole entry): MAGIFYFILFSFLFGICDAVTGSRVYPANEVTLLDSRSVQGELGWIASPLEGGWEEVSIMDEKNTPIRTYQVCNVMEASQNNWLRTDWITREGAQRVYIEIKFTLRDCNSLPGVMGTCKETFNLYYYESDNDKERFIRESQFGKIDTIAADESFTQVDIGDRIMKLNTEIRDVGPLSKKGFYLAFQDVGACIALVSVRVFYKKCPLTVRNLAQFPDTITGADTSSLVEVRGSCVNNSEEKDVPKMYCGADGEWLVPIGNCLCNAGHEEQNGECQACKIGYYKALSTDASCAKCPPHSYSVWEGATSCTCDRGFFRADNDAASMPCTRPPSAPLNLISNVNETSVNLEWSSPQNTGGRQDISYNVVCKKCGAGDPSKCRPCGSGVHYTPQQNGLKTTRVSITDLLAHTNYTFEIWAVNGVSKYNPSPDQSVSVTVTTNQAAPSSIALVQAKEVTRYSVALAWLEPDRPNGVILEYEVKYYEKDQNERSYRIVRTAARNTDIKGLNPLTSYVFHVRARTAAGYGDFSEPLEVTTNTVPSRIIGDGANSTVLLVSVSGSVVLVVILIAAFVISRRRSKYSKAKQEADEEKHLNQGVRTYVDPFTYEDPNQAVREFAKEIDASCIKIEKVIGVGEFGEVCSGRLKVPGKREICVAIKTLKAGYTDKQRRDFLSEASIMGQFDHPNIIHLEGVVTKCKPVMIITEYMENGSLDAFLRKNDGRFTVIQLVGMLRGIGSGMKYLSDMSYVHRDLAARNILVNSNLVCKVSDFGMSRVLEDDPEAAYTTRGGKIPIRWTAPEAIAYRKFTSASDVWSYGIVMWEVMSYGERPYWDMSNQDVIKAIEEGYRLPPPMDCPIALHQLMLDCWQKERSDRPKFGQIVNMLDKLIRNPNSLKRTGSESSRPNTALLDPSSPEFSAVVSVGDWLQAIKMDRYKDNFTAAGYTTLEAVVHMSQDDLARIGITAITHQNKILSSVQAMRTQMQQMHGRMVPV
Chain of DNA (cytosine-5)-methyltransferase 1 (P26358 whole entry): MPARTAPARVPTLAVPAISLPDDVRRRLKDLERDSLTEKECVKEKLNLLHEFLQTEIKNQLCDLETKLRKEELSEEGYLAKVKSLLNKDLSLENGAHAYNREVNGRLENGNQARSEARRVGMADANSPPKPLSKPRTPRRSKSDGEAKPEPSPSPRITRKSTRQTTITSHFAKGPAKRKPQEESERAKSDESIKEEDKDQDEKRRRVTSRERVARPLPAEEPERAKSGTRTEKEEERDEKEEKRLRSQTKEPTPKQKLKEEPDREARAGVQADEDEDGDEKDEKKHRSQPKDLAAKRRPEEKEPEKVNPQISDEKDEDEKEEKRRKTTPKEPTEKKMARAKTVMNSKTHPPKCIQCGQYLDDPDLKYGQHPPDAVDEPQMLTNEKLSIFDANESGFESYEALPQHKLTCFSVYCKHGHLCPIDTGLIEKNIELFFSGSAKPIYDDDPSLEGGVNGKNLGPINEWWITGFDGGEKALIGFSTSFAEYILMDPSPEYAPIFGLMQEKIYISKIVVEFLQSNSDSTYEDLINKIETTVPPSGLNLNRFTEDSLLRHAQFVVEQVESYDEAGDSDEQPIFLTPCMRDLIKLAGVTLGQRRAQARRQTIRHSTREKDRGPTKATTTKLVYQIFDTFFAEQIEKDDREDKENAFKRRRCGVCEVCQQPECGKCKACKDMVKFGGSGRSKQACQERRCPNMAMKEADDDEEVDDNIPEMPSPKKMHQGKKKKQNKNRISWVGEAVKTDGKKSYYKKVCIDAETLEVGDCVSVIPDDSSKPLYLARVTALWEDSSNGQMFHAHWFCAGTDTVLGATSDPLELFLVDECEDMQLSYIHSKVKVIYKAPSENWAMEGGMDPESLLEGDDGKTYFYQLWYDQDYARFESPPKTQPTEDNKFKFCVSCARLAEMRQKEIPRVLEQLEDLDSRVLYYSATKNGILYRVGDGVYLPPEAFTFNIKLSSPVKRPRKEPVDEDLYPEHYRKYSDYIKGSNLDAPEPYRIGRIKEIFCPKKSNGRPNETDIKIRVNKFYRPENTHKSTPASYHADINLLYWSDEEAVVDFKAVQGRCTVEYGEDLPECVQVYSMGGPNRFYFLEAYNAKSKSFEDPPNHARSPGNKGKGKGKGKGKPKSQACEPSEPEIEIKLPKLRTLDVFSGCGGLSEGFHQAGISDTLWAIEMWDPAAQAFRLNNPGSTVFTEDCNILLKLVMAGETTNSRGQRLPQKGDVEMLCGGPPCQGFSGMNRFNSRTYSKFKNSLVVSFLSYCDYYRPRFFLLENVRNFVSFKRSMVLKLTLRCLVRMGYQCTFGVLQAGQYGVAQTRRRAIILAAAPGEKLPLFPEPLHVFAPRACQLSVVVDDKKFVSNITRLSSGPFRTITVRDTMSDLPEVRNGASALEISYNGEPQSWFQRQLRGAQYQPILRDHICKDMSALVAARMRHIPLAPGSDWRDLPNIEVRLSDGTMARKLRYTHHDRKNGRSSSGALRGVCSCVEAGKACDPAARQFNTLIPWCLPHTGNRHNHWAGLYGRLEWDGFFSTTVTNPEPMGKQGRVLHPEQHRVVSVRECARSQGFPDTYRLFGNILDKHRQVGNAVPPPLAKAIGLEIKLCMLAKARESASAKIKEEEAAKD
Chain of Induced myeloid leukemia cell differentiation protein Mcl-1 (Q07820 whole entry): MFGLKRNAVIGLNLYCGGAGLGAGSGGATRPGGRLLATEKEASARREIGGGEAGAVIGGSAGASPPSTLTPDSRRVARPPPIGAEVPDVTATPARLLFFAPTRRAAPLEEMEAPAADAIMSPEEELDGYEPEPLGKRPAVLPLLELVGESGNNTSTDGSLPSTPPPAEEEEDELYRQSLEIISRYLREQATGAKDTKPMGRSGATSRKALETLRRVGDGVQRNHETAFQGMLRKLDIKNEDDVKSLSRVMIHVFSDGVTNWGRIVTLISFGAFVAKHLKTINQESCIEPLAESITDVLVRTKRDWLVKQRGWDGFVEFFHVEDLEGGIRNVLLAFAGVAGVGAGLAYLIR

## O=C(O)/C=C/C(=O)Nc1ccc(-n2nccc2C(F)(F)F)cc1
[1]
  IC50: > 100 µM (active)

## O=C(CSc1nc2ccc(F)cc2c(=O)n1-c1ccccc1)Nc1ccc2c(c1)CCC2
Vero
  CC50: > 200 µM (active)

## O=c1cc(-c2ccccc2O)oc2c1ccc1ccccc12
Cytochrome P450 2C19
  AC50: 0.251 µM (inconclusive)
Cytochrome P450 3A4
  AC50: 15.8 µM (inconclusive)

## Cc1ccc[n+](CC(=O)c2ccc(Br)cc2)c1C
[2]
  EC50: 6.77 µM (active)
[3]
  IC50: 13.8 µM (active)

## O=C(c1cccc(-n2sc3ccccc3c2=O)c1)N1CCOCC1
[4]
  IC50: 23.1 µM (active)

## O=C1CCCC2=C1C(c1ccco1)Nc1ccc3ccccc3c12 (configuration not stated)
Bcl-2-like protein 10
  IC50: 7.53 µM (active)
Ephrin type-A receptor 4
  IC50: 11.8 µM (active)
[5]
  IC50: 3.2 µM (active)
[6]
  IC50: 6.62 µM (active)
[7]
  CC50: > 40 µM (active)
